# Reference: patent publication US20250122193A1, “NOVEL PYRIDOCARBAZOLIUM COMPOUNDS AND MEDICAL USES THEREOF” (MyCural Therapeutics, priority 2021, published 2025)
# Columns and labels:
# MYCN:MAX interaction = molecular target: T1, MYCN:MAX interaction (Homo sapiens, UniProt P04198); assay: split Gaussia luciferase (GLuc) assay, MYCN:MAX; assay type: cell-based; conditions: HeLa cells
# T1 construct: replacing the existing Zip-gene (GCN4) with full length MYC, MYCN or MAX cDNA; expressed in transfected cells; host or cells: HeLa
# T1 sequence (P04198 1-464): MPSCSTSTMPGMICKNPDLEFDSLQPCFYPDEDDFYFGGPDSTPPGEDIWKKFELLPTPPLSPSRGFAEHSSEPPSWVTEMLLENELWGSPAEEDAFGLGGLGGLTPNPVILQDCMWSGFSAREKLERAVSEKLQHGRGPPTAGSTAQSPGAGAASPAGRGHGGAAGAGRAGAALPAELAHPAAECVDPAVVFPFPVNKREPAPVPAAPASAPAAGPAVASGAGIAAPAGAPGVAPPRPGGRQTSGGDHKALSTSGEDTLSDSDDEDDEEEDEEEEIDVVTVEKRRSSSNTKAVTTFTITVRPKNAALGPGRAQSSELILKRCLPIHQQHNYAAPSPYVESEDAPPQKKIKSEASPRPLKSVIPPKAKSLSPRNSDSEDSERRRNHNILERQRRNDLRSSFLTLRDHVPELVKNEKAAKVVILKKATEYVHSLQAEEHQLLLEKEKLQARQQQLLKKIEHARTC
# Method: A) Molecular structure of MYCMI-7. B-E) split Gaussia luciferase (GLuc) assay. MYC or MYCN and MAX Gluc constructs were co-transfected into HeLa cells together with a firefly luciferase vector. 24 hours post transfection cells were treated with compounds, and after another 17-24 hours cells were harvested and both GLuc and firefly luciferase activities were measured. The mean of three different experiments is shown. Treatment with: B) 5 μM of MYCMI-7, 64 μM 10058-F4 or 5 μM JQ1, respectively, C) 6.5 μM MYCMI-7 on cells expressing MYC:MAX GLuc vs. GCN4:GCN4 GLuc, D) 5 μM MYCMI-7 and 5 μM ellipticine. E) 5 μM MYCMI-7 for various time points. F) in situ proximity ligation assay (isPLA). […] MYC:GAL4 was used as negative control in the isPLA assay. G) Quantification of isPLA dots. (H) Co-immunoprecipitation (co-IP) of endogenous MYC and MAX proteins from MCF7 cells after treatment with 5 μM MYCMI-7 at various times. IP=immunoprecipitation; W=western blot. I) Chromatin immunoprecipitation (ChIP) of MYC at the ODC1 target gene promoter after treatment of cells with 5 μM MYCMI-7 for 6 hours. J) MYC target gene ODC1 expression after treatment with 5 μM MYCMI-7, quantified by qPCR. […] L) Recombinant MYC bHLHZip protein domain immobilized onto a CM5 chip was subjected to various concentrations of MYCMI-7 and the complex of MYCbHLHZip-MYCMI-7 was measured as response units by SPR. […]
# 0.2-0.4 μg of each GLuc-construct together with 0.05 μg pCMV-LUC (firefly luciferase) were used per transfection in 12 well plates. […] After 60 min incubation at room temperature 20 μM D-luciferin was added (substrate of Firefly luciferase) and luminescence was measured in a Lumat LB9501 (Berthold) or OmegaFluostar (BMG Labtech) luminometer. Directly after, Gaussia luciferase substrate Coelenterazine (Promega) was added to a final concentration of 20 μM in a mixture with “Stop n' Glow” (Promega) and the luciferase activity was measured. The ratio between Gaussia and Firefly luciferase values were calculated and normalized to DMSO-treated control cells.
# MYC:MAX interaction = MYC:MAX interaction (Homo sapiens, UniProt P01106); assay: split Gaussia luciferase (GLuc) assay, MYC:MAX; assay type: cell-based; set-up: replacing the existing Zip-gene (GCN4) with full length MYC, MYCN or MAX cDNA; expressed in transfected cells; host or cells: HeLa; conditions: HeLa cells
# Method: A) Molecular structure of MYCMI-7. B-E) split Gaussia luciferase (GLuc) assay. MYC or MYCN and MAX Gluc constructs were co-transfected into HeLa cells together with a firefly luciferase vector. 24 hours post transfection cells were treated with compounds, and after another 17-24 hours cells were harvested and both GLuc and firefly luciferase activities were measured. The mean of three different experiments is shown. Treatment with: B) 5 μM of MYCMI-7, 64 μM 10058-F4 or 5 μM JQ1, respectively, C) 6.5 μM MYCMI-7 on cells expressing MYC:MAX GLuc vs. GCN4:GCN4 GLuc, D) 5 μM MYCMI-7 and 5 μM ellipticine. E) 5 μM MYCMI-7 for various time points. F) in situ proximity ligation assay (isPLA). […] MYC:GAL4 was used as negative control in the isPLA assay. G) Quantification of isPLA dots. (H) Co-immunoprecipitation (co-IP) of endogenous MYC and MAX proteins from MCF7 cells after treatment with 5 μM MYCMI-7 at various times. IP=immunoprecipitation; W=western blot. I) Chromatin immunoprecipitation (ChIP) of MYC at the ODC1 target gene promoter after treatment of cells with 5 μM MYCMI-7 for 6 hours. J) MYC target gene ODC1 expression after treatment with 5 μM MYCMI-7, quantified by qPCR. K) ChIP of MYC at the ODC promoter in MCF7 cells after 5 μM MYCMI-7 treatment for indicated time points. L) Recombinant MYC bHLHZip protein domain immobilized onto a CM5 chip was subjected to various concentrations of MYCMI-7 and the complex of MYCbHLHZip-MYCMI-7 was measured as response units by SPR. The sensogram was produced by subtracting the blank response.
# 0.2-0.4 μg of each GLuc-construct together with 0.05 μg pCMV-LUC (firefly luciferase) were used per transfection in 12 well plates. 24 hours later cells were treated with compound or DMSO. After another 17 hours, the cells were harvested and lyzed in passive lysis buffer (Promega) supplemented with complete protease inhibitor (Roche). After 60 min incubation at room temperature 20 μM D-luciferin was added (substrate of Firefly luciferase) and luminescence was measured in a Lumat LB9501 (Berthold) or OmegaFluostar (BMG Labtech) luminometer. Directly after, Gaussia luciferase substrate Coelenterazine (Promega) was added to a final concentration of 20 μM in a mixture with “Stop n' Glow” (Promega) and the luciferase activity was measured. The ratio between Gaussia and Firefly luciferase values were calculated and normalized to DMSO-treated control cells.
# Recombinant human Top2a = Recombinant human Top2a (Homo sapiens, UniProt P11388); assay: Top2 decatenation assay; assay type: biochemical; conditions: for effect on TOP2A activity: 1-100 μM
# Method: Top2 decatenation assay: Recombinant human Top2a (15 nM) was incubated with 80 ng catenated kinetoplast DNA (Topogen, TG2013) in Top2 reaction buffer (50 mM Tris pH8, 150 mM NaCl, 10 mM MgCl2, 0.5 mM DTT, 30 μg/ml BSA) with 1-100 μM of either doxorubicin, MYCMI-7, ellipticine or camptothecin for 10 minutes at 37° C. Drug dilutions were made in a DMSO/H2O solution so that a final concentration of 1% DMSO was consistent across all samples. The reaction was stopped with the addition of SDS to a final concentration of 1% and the Top2a was digested by Proteinase K at 55° C. for 10 minutes. DNA was purified by phenol:chloroform extraction before running on a 1% agarose gel either containing or post-stained with 0.5 μg/ml ethidium bromide. The decatenated products were quantified, normalised to the Top2α+DMSO control and plotted using GraphPad Prism.
# First, we utilized an in vitro TOP2A decatenation assay. TOP2 enzymes decatenate kinetoplast DNA (kDNA) converting a network of interlocking DNA rings into individual rings that can be separated by agarose gel electrophoresis.
# p53 expression = p53 expression by western blot; assay type: cell-based; conditions: 5 μM, HCT116 cells
# Method: (§1) A) Measurement of MYC mRNA expression by RTqPCR after treatment with MYCMI-7 and different topoisomerase inhibitors at indicated concentrations. […] D) Western blot analysis of p53 and p21 expression after exposure to 5 μM MYCMI-7, ellipticine or camptothecin (CPT) in HCT116 cells. E) Western blot analysis of phospho-ATM, total ATM and p53 expression after exposure to indicated concentrations of MYCMI-7 and ellipticine in A375 cells after 3 hrs treatment.
# (§2) For western blot equal amounts of proteins ([…]) were separated on a 4-12% SDS-PAGE gel. Proteins were transferred to Immobilion-P membrane (Millipore) and detected by immunostaining and chemoluminescence (Immobilion western HRP substrate; Millipore). For immunoprecipitations 500-1000 μg of protein was used. […] Briefly, cells were crosslinked with 1% formaldehyde on ice for 6 minutes. Nuclear chromatin was sonicated on ice to fragments from 0.3 kb to 0.5 kb. Nuclear chromatin equivalent to 2.5×10^7 cells was immunoprecipitated with 2 μg antibody.
# MYC mRNA = MYC mRNA expression by RT-qPCR; assay type: cell-based; conditions: 1 μM
# Method: as §1
# [1] = test system: Rat1 fibroblasts TGR1 (wt MYC) and HOMyc3 (reconstituted MYC); assay: WST-1 growth/viability assay, MYC-expressing Rat1 fibroblasts; assay type: cell-based, rat; conditions: TGR1, HO15.19 and HOMyc3
# Method: A) Immortalized Rat1 fibroblasts with different MYC status; TGR1 (wt MYC), HO15.19 (MYC−/−) and HOMyc3 (HO15.19 with reconstituted MYC) were treated with indicated concentrations of MYCMI-7 for 48 hours. Cell proliferation/viability/metabolic activity was measured using the WST-1 assay. […] “Responsive” and “less responsive”; cell lines with positive and negative log 10 GI50 values, respectively. […] For the WST-1 assays the average of three different experiments performed in triplicates is shown.
# Cell growth and viability assays: Cell growth and viability was estimated in triplicates with WST-1 (Roche) or Resazurin sodium salt (Sigma-Aldrich) assays in medium at 37° C. and 5% CO2 for 2 hours after which absorbance or fluorescence, respectively, was measured with an Omega Fluostar (BMG Labtech) in a 96 well plate format.
# phosphorylation of ATM = assay: phospho-ATM and p53 by western blot, A375; assay type: cell-based; conditions: 5 μM, A375 cells, 3 hrs
# Method: as §1, §2
# Sequence of Recombinant human Top2a (P11388 whole entry): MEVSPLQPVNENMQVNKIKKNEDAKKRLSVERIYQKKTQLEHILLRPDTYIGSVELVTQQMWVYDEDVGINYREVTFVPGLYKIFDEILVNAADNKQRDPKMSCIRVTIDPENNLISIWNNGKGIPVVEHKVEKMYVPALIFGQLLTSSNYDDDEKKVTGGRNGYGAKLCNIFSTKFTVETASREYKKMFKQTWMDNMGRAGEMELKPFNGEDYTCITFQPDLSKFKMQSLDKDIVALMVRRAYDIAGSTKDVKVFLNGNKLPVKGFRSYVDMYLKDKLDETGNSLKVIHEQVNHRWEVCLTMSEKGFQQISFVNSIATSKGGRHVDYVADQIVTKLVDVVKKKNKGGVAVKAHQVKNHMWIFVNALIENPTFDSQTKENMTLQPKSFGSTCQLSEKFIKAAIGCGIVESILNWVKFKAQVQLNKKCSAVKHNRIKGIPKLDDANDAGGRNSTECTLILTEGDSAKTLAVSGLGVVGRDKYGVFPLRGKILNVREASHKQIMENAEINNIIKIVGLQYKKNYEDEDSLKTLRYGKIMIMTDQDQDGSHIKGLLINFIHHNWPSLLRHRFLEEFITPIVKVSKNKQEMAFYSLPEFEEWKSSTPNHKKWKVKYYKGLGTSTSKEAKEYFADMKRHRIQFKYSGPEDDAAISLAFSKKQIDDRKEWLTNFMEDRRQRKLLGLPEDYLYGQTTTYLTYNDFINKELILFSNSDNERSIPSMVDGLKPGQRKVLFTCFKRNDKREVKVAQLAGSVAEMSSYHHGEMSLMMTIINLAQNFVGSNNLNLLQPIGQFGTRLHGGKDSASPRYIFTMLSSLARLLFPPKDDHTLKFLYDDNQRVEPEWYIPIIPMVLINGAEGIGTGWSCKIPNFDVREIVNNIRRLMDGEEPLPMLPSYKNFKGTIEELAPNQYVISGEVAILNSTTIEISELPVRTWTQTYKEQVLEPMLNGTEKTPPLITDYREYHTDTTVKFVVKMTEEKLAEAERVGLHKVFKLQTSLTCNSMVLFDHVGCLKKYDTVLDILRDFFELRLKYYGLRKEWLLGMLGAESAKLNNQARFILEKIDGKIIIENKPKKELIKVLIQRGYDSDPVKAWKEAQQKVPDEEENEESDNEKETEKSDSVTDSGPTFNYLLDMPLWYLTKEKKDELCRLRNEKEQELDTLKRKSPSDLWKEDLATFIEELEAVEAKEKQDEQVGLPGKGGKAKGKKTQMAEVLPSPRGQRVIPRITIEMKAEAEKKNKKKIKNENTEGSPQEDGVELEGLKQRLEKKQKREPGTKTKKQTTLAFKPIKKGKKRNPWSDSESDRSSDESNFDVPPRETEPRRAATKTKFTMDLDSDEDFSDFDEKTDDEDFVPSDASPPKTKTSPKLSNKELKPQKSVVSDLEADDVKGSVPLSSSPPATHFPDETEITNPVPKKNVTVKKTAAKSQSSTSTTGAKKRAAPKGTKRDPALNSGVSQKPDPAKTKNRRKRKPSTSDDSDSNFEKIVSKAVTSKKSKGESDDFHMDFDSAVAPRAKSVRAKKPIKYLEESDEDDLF
# Sequence of MYC:MAX interaction (P01106 16-454): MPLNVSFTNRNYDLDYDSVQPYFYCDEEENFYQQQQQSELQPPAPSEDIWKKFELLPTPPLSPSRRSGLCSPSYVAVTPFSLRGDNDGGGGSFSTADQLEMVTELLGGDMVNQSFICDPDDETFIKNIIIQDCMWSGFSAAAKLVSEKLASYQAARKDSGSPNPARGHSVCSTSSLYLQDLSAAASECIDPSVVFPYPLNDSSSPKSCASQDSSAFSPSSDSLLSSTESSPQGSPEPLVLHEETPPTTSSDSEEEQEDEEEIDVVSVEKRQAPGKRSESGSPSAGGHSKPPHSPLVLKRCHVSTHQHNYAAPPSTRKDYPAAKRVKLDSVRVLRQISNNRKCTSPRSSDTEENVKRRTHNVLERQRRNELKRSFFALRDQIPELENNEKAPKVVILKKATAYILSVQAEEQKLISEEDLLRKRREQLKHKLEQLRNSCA
smiles,measurement,setting,value
"CCc1ccc(/C=C2/SC(=S)NC2=O)cc1 [Example 10058-F4, 10058-F4]",inhibition of MYCN:MAX GLuc interaction,MYCN:MAX interaction; 64 μM,only weak effects
same,inhibition of MYC:MAX GLuc interaction,MYC:MAX interaction; 64 μM,only weak effects
Cc1sc2c(c1C)C(c1ccc(Cl)cc1)=N[C@@H](CC(=O)OC(C)(C)C)c1nnc(C)n1-2 [JQ1],inhibition of MYCN:MAX GLuc interaction,MYCN:MAX interaction; 5 μM,only weak effects
same,inhibition of MYC:MAX GLuc interaction,MYC:MAX interaction; 5 μM,only weak effects
"CC[C@@]1(O)C(=O)OCc2c1cc1n(c2=O)Cc2cc3ccccc3nc2-1 [camptothecin, reference compound]",effect on TOP2A activity,Recombinant human Top2a,no effect
same,p53 expression,p53 expression,induced p53 expression
COc1cccc2c1C(=O)c1c(O)c3c(c(O)c1C2=O)C[C@@](O)(C(=O)CO)C[C@@H]3O[C@H]1C[C@H](N)[C@H](O)[C@H](C)O1 [doxorubicin],MYC expression (mRNA),MYC mRNA,strongly reduced
same,concentration at which TOP2A inhibition starts,Recombinant human Top2a; in vitro decatenation of kDNA,3 µM
same,concentration of complete TOP2A inhibition,Recombinant human Top2a; in vitro decatenation of kDNA,10 µM
"Cc1c2ccncc2c(C)c2c1[nH]c1ccccc12 [ellipticine, reference compound]",growth of Rat1 cell clones irrespective of MYC status,[1],reduced growth of all three cell clones
same,effect on TOP2A activity,Recombinant human Top2a,no effect
same,p53 expression,p53 expression,induced p53 expression
same,phosphorylation of ATM and p53 expression (DDR signaling),phosphorylation of ATM,strongly induced
same,inhibition of MYC:MAX GLuc interaction,MYC:MAX interaction; 5 μM,inactive
